Laboratory results from US20220184019A1, “Use of chlorogenic acid in preparation of drug for preventing and treating ocular inflammation” (SICHUAN JIUZHANG BIOLOGICAL SCIENCE AND TECHNOLOGY CO., LTD, priority 2017, published 2022).
“Also recorded” adds a separate entry of the source. Marks after values point to notes of the source that are not given here.

What was measured:
scleritis [1] = test: Clinical efficacy on scleritis: inflammation control in one month; type: in vivo, patients; conditions: for Cure / Improved / Ineffective / Total effective rate: scleritis patients, n=10 per group, inflammation control in one month
Protocol: (§1) Twenty patients with scleritis were randomly divided into chlorogenic acid test group (10 patients) and control group (10 patients). Patients in chlorogenic acid test group were given chlorogenic acid at a dose of 3 mg/(kg·d) by intramuscular injection. The patients in the control group were given dexamethasone sodium phosphate (5 mg/d) by intravenous injection, and after continuous observation and treatment for 5 days, they initially received oral […] (1 mg/(kg·d)). Both groups were continuously administrated for one month.
(§2) According to the random table, 20 patients with scleritis were randomly divided into two groups, namely chlorogenic acid test group and dexamethasone sodium phosphate control group. Among 10 patients of chlorogenic acid control group, there were one male and 9 females, with an average age of (30.5±5.1) years old and an average course of disease (5.1±0.3). In the dexamethasone sodium phosphate control group, there were one male and 9 females, with an average age of (31.5±4.7) years old and an average course of disease (5.5±0.3). For both groups of patients, there was no statistically significant difference (P>0.05) in the clinical data including age, gender, and disease course, having comparability.
(§3) (1) Inquiring the medical history in detail, performing detailed examinations such as slit lamp examination, fundus examination, ultrasound examination, eye imaging, etc., and making a clear diagnosis of the patient with scleritis; (2) No glucocorticoid and chlorogenic acid contraindications; (3) Patients having non-microbial infectious scleritis; (4) Patients having no obvious abnormalities in blood routine, electrolytes, liver function, kidney function, blood pressure, blood sugar, and so on.
(§4) (1) Patients with microbial infectious scleritis and systemic infectious diseases; (2) Episcleritis; (3) Patients allergic to glucocorticoids or having toxic side effects due to administration of glucocorticoids; (4) Pregnant women and lactating women as well as babies; (5) Patients with moderate hypertension, severe cardiovascular and cerebrovascular diseases, diabetes, as well as liver and kidney function impairment; (6) Patients having poor compliance and refusing regular review and follow-up.
(§5) Patients in chlorogenic acid test group were given chlorogenic acid at a dose of 3 mg/(kg·d) by intramuscular injection. The patients in the control group were given dexamethasone sodium phosphate at 5 mg/day by intravenous infusion, and after continuous observation and treatment for 3 days, they were changed to oral prednison (1 mg/(kg·d)). Both groups were continuously administrated for one month.
(1) Cure: the eye symptoms and signs completely disappeared after treatment; (2) Improved: the eye symptoms and signs improved after treatment; (3) Ineffective: the inflammation was not controlled, or the situation was the same as before treatment.

scleritis [2] = test: Clinical efficacy on scleritis: vision recovery in one month (logarithmic visual acuity chart); type: in vivo, patients; conditions: for Ineffective / Total effective rate / Improved / Significantly improved vision: scleritis patients, n=10 per group, vision recovery in one month; for Improved: improving 1-2 lines; for Significantly improved vision: improving 3 lines or more
Protocol: as §1, §2, §3, §4, §5
(1) After treatment, the same logarithmic visual acuity chart (the best corrected visual acuity was measured for those with ametropia) was used to detect and record the vision. Significant improvement: improving 3 lines or more; improvement: improving 1-2 lines; ineffective: the vision was not improved or even decreased.

[3] = system: experimental autoimmune uveitis (EAU); test: Therapeutic effect on IRBP-induced experimental autoimmune uveitis in rats; slit-lamp ocular inflammation score (Caspi clinical grading); type: in vivo, SD rats; conditions: 20 mg/kg intraperitoneal; for Scores of ocular inflammation in rats: EAU SD rats
[4] = 3 mg/(kg·d) intramuscular, one month, vs dexamethasone sodium phosphate control, P<0.05

With O=C(/C=C/c1ccc(O)c(O)c1)O[C@@H]1C[C@](O)(C(=O)O)C[C@@H](O)[C@H]1O [Chlorogenic acid] as the compound, how does the “Inflammation control effect versus control group” value (scleritis [1]; [4]) read?
The value was “significantly better than the control group”.

What about the Cure (scleritis [1]) of the same compound?
Its Cure is 5 (50%)* cases (%).

And the Improved (scleritis [1])?
The Improved was 3 (30%) cases (%).

And the Ineffective (scleritis [1])?
The Ineffective was 2 (20%) cases (%).

And the Total effective rate (scleritis [1])?
Its Total effective rate is 8 (80%)* cases (%).

What about the “Vision recovery versus control group” value (scleritis [2]; [4]) of the same compound?
The value was “significantly better than the control group”.

What about the Ineffective (scleritis [2]) of the same compound?
Its Ineffective is 1 (10%) case (%).

And the Total effective rate (scleritis [2])?
The Total effective rate was 90 (90%)* case (%).

What about the Improved (scleritis [2]) of the same compound?
The Improved was 3 (30%) case (%).

And the Significantly improved vision (scleritis [2])?
The Significantly improved vision was 6 (60%)* case (%).

What about the “Ocular inflammation (score) compared with the control group at the same time point” value ([3]; vs normal saline control, P<0.05) of the same compound?
The value was “significantly reduced; also recorded: significantly lower”.

And the “Scores of ocular inflammation in rats” value ([3]; day 6 after immunization)?
The value was 0.6 ± 0.2.

And the “Scores of ocular inflammation in rats” value ([3]; day 7 after immunization)?
The value was 0.6 ± 0.2.

And the “Scores of ocular inflammation in rats” value ([3]; day 8 after immunization)?
Its value is 0.7 ± 0.4.

What about the “Scores of ocular inflammation in rats” value ([3]; day 9 after immunization) of the same compound?
The value was 1.1 ± 0.4.

What about the “Scores of ocular inflammation in rats” value ([3]; day 10 after immunization) of the same compound?
Its value is 1.3 ± 0.6.

What about the “Scores of ocular inflammation in rats” value ([3]; day 11 after immunization) of the same compound?
Its value is 1.9 ± 0.6.

And the “Scores of ocular inflammation in rats” value ([3]; day 12 after immunization)?
Its value is 2.0 ± 0.4.

What about the “Scores of ocular inflammation in rats” value ([3]; day 13 after immunization) of the same compound?
The value was 1.3 ± 0.6.

And the “Scores of ocular inflammation in rats” value ([3]; day 14 after immunization)?
The value was 1.1 ± 0.3.

What about the “Scores of ocular inflammation in rats” value ([3]; day 15 after immunization) of the same compound?
Its value is 0.5 ± 0.3.

And the “Scores of ocular inflammation in rats” value ([3]; day 16 after immunization)?
Its value is 0.4 ± 0.3.

And the “Scores of ocular inflammation in rats” value ([3]; day 17 after immunization)?
Its value is 0.3 ± 0.1.

And the “Scores of ocular inflammation in rats” value ([3]; day 18 after immunization)?
Its value is 0.3 ± 0.1.

And the “Scores of ocular inflammation in rats” value ([3]; day 19 after immunization)?
The value was 0.3 ± 0.1.

What about the “Scores of ocular inflammation in rats” value ([3]; day 20 after immunization) of the same compound?
Its value is 0.3 ± 0.1.

C[C@@H]1C[C@H]2[C@@H]3CCC4=CC(=O)C=C[C@]4(C)[C@@]3(F)[C@@H](O)C[C@]2(C)[C@@]1(O)C(=O)COP(=O)(O)O [Control group, dexamethasone sodium phosphate, reference compound] was tested. Which Cure (scleritis [1]) did it give?
The Cure was 2 (20%) cases (%).

And the Improved (scleritis [1])?
Its Improved is 3 (30%) cases (%).

And the Ineffective (scleritis [1])?
The Ineffective was 5 (50%) cases (%).

And the Total effective rate (scleritis [1])?
Its Total effective rate is 5 (50%) cases (%).

What about the Ineffective (scleritis [2]) of the same compound?
The Ineffective was 4 (40%) case (%).

What about the Total effective rate (scleritis [2]) of the same compound?
The Total effective rate was 60 (60%) case (%).

What about the Improved (scleritis [2]) of the same compound?
The Improved was 3 (30%) case (%).

What about the Significantly improved vision (scleritis [2]) of the same compound?
The Significantly improved vision was 3 (30%) case (%).
